Test results published in patent publication US8193333B2, “Cancer therapy using Bcl-Xl-specific siNA” (Centre Regional de Lutte Contre le Cancer-Centre Francois …, priority 2006, dated 2012).

How the values were obtained:
SKOV3 cells = test: Apoptosis induction in SKOV3 cells (cell and nuclear morphology after DAPI, caspase 3 activation and PARP cleavage by Western blot); type: cell-based, human
Protocol: (§1) Exponentially growing cells were exposed to CDDP for 2 hours at 37° C., in serum free medium. After exposure to the drug, the cell layers were rinsed and incubated in complete growth medium.
(§2) The siRNA duplexes were transfected according to the recommended procedure by using the Oligofectamine Reagent and Opti-MEM medium (INVITROGEN LIFE TECHNOLOGIES). 30-40% confluent cells were transfected in 25 cm^2 flasks with different concentrations of siXL1, siRNA Mcl-1 or siRNA control and incubated at 37° C., 5% CO2 for 4 hours. Next, 20% fetal bovin serum was added to reach a final concentration of 10% foetal bovin serum in the 25 cm^2 flask.
(§3) Cells were rinsed with ice cold PBS and lysed in 150 mM NaCl, 50 mM Tris-HCl pH 8, 1% Triton X100, 4 mM PMSF, 2 mM Aprotinin, 5 mM EDTA, 10 mM NaF, 10 mM NaPPi, 1 mM Na3VO4 for 30 min on ice. Lysates were clarified by centrifugation at 10000 g for 10 min at 4° C. and protein concentrations were determined using the Bradford assay (BIO-RAD). Equal amounts of total cellular protein (20 μg) were resolved in a Bis-tris-HCL buffered (pH 6.4) 4-12% polyacrylamide gel (NuPAGE® Novex® 4-12% Bis-tris gel, INVITROGEN) for 35 min at 200V and electrophoretically transferred on a PVDF membrane (MILLIPORE) for 75 min at 30V. The membrane was blocked for 1 hour at room temperature in T-TBS (132 mM NaCl, 20 mM Tris-HCl pH 7.6, 0.05% Tween 20) supplemented with 5% non-fat dry milk. The membrane was incubated for 1 hour at room temperature in T-TBS-milk with the following primary antibodies: anti-Bcl-XL/S (1:500, S18 SANTA-CRUZ BIOTECHNOLOGY), anti-PARP (1:1000, CELL-SIGNALING TECHNOLOGY), anti-caspase-3 (1:1000, BD BIOSCIENCES PHARMINGEN) anti-cleaved caspase-3 (1:1000, CELL-SIGNALING TECHNOLOGY), anti-alpha-tubulin (1:3000, SIGMA) and anti-Mcl-1 (1:750, S19 SANTA-CRUZ BIOTECHNOLOGY). After three washes with T-TBS, the membrane was incubated for 1 h at room temperature in T-TBS-milk with the adequate peroxidase conjugated secondary antibody (Anti-rabbit IgG, CELL-SIGNALING TECHNOLOGY, and anti-mouse IgG, AMERSHAM). After 3 washes with T-TBS and one with TBS, the immunoreactivity was detected by enhanced chemiluminescence (ECL kit, AMERSHAM).
After treatment, detached cells were collected separately and adherent cells were dissociated by trypsin/EDTA. Adherent and detached cells were then pooled and centrifuged at 1500×g for 5 min before being fixed in 70% ethanol. The cells were then collected on a polylysine-coated glass slide by cytocentrifugation, before a 30 min room temperature incubation in a 1 μg/ml DAPI aqueous solution (BOEHRINGER MANNHEIM). Slides were thereafter extensively washed in distilled water and mounted in Mowiol (CALBIO-CHEM).

Bcl-XL protein [1] = test: Western blot of Bcl-XL protein expression in tumour cell lines after siRNA transfection; type: cell-based, human
Protocol: SKOV3, OAW42, OAW42-R10, IGROV1 and IGROV1-R10 human ovarian adenocarcinoma cell lines, GL15 glioblastoma cell line, and NCI-H28 mesothelioma cell line were obtained from ECACC or ATCC. OAW42, OAW42-R10 cells were grown in DMEM (GIBCO-BRL) supplemented with 10% foetal calf serum (GIBCO-BRL), 2 mM Glutamax™ (GIBCO-BRL), 1 mM sodium pyruvate (GIBCO-BRL), 20 UI/L human recombinant insulin (LILLY), 33 mM sodium bicarbonate and 20 mM HEPES All the other cell lines were grown in RPMI 1640 medium (GIBCO-BRL) supplemented with 10% foetal calf serum (GIBCO-BRL), 2 mM Glutamax™ (GIBCO-BRL), 33 mM sodium bicarbonate and 20 mM HEPES. Cells were maintained at 37° C. in a 5% CO2 humidified atmosphere, and split twice a week by trypsinization.
as §1, §2, §3

[2] = test system: subcutaneous SKOV3 human ovarian carcinoma; test: Growth of subcutaneous SKOV3 tumours in nude mice; type: in vivo; conditions: 25 μg/kg intraperitoneally once a week, FIG. 16
Protocol: PEI/siRNA complexes were prepared in 5% glucose solution with a ratio of L-PEI nitrogen to siRNA phosphate of 5:1. Various amounts of siRNA (125, 625 or 2500 ng) and L-PEI were diluted separately, and PEI was then added to the siRNA. The solution was quickly homogenized and left for 15 min at room temperature. It was injected intraperitoneally in mice as a 0.5 ml 5% glucose solution.
SKOV3 cells (2×10^7/500 μL) were inoculated subcutaneously into the right flank of nude mice, and establishment of palpable tumours was determined. The tumour volume was calculated as v=L×l^2×p/6 where L and l represent the larger and the smaller tumour diameter measured twice week with digital caliper. When tumours reached an average volume of ˜100 mm^3 (on day 10), three experimental groups (three mice per group) were tested as follow: (a) untreated, (b) siXL1 naked (25 μg/kg), and (c) siXL1-PEI (25 μg/kg). The samples were diluted in 0.5 ml 0.9% NaCl solution (siRNA naked) or in 0.5 ml 5% glucose solution (siRNA-PEI) and injected intraperitoneally. This process was repeated once a week.

Bcl-XL protein [3] = test: Immunohistochemical analysis of Bcl-XL protein in SKOV3 peritoneal tumour nodes of mice; type: in vivo, human; conditions: naked siXL1 5, 25 or 100 μg/kg, 3 days after injection
Protocol: […] […] The solution was quickly homogenized and left for 15 min at room temperature. It was injected intraperitoneally in mice as a 0.5 ml 5% glucose solution.
[…] Mice were killed 3 days after transfection and each organ (kidney, liver, spleen, pancreas, ovary, peritoneum, diaphragm, lung, heart and skeletal muscle) was washed with saline solution. Parts of each organs were either frozen in liquid nitrogen and stored at −80° C. for RT-PCR and western blot analysis, or formalin-fixed and paraffin-embedded for histological examination and immunohistochemical analysis.
Immunohistochemical staining was performed on paraffin-embedded material. To perform immunostaining, 4 μm-thick sections were dewaxed, rehydrated and treated 30 minutes by high-temperature-heating antigen retrieval technique in citrate buffer 0.1M pH6 to unmask epitopes. Sections were incubated 1 hour at room temperature with polyclonal antibody anti-Bcl-XL/S (S18) obtained from Santa Cruz (TEBU-BIO) and diluted 1:50. After washes, slides were incubated with Rabbit IgG Vectastain ABC Kit (VECTOR, ABCYS) according to the manufacturer instructions.

[4] = SKOV3 cells, 100 nM siXL1, FIG. 4

siXL1: double-stranded siRNA blocking Bcl-XL expression; sense 5′-auuggugagucggaucgcatt-3′ (SEQ ID NO: 5), anti-sense 5′-ugcgauccgacucaccaautt-3′ (SEQ ID NO: 6) (sense AUUGGUGAGUCGGAUCGCATT; antisense UGCGAUCCGACUCACCAAUTT; chemistry not given here)
caspase 3 activation and PARP cleavage after 24 h exposure to cisplatin (SKOV3 cells; 24 h, combination with 20 μg/ml cisplatin): detectable | apoptosis induction (cellular and nuclear morphology, caspase 3 cleavage) (SKOV3 cells; 72 h after transfection, FIG. 5): moderate apoptosis | apoptosis / cell death (nuclear fragmentation and condensation, morphology, pre-G1 peak) (SKOV3 cells; alone 150 nM or in combination 75 nM each, FIGS. 13 and 14): moderate apoptosis | optimal concentration (Bcl-XL protein [1]; SKOV3 cells): 150 nM | persistence of the siXL1 effect (Bcl-XL protein [1]; SKOV3 cells): 96 h | effect on Bcl-XL protein expression at lower dose (Bcl-XL protein [1]; SKOV3 cells, 25 nM, FIG. 4): greatly reduced and delayed | time of maximum decrease of Bcl-XL protein expression (Bcl-XL protein [1]; [4]): 72 h | time of reappearance of Bcl-XL protein expression (Bcl-XL protein [1]; [4]): ≥ 144 h | Bcl-XL protein expression 24 hours after transfection (Bcl-XL protein [1]; SKOV3 cells, 24 hours after siXL1 transfection): reduced | effect of various concentrations on Bcl-XL protein expression (Bcl-XL protein [1]; SKOV3 cells, 72 h after transfection, FIG. 3): dose-dependent | Bcl-XL protein expression 24 hours after exposure to cisplatin (Bcl-XL protein [1]; SKOV3 cells, 72 hours after siRNA transfection, cisplatin 5 and 20 μg/ml, FIG. 9): disappears almost completely | Bcl-XL protein expression after 72 hours (Bcl-XL protein [1]; SKOV3 cells, 72 hours after transfection, FIG. 1C): disappeared totally | Bcl-XL protein expression 96 hours after cisplatin exposure (Bcl-XL protein [1]; SKOV3 cells, 144 hours after transfection, combination with 20 μg/ml cisplatin, FIG. 9): reappears | Bcl-XL protein expression in various tumor cell lines (Bcl-XL protein [1]; ovarian carcinoma, glioblastoma or mesothelioma cells, 72 h after transfection, FIGS. 2A&B): extinction | effect on subcutaneous tumor growth [2]: almost no effect | Bcl-XL labelling intensity in tumour nodes (Bcl-XL protein [3]): decreases as the siXL1 dose increases
